In PubChem BioAssay (NCI) one finds TGI and GI50 data, which are given here for nine compounds.

Several values for one entry are separate records, joined by “and”; a condition that tells them apart may be missing. Equal entries are not always repeated.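 Growth conditions: 96-well plates. Treatment: test compound, 48 hours, 5 concentrations. Analysis: linear interpolation between bracketing concentrations; unreached endpoints set to highest concentration. At the GI50, growth is halved. TGI denotes the concentration required for complete inhibition of growth.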

Holding throughout (test): DTP human tumour cell line panel, 48 h
Assay [1] deals with 786-0 renal.
The test system of assay [2] is OVCAR-3 ovarian.
Assay [3] concerns ACHN renal.
For assay [4], the system named is HOP-62 NSCLC.
The test system of assay [5] is RXF 393 renal.
Assay [6] concerns HCC-2998 colon.
Assay [7] has as its system IGROV1 ovarian.
Assay [8] relates to NCI-H522 lung.
For assay [9], the system named is T-47D breast.
For assay [10], the system named is SNB-75 CNS.

As usually defined, the TGI is the concentration at which net growth stops. A low value points to more potent growth arrest. Turning to `CN1c2ccccc2S(=O)(=O)n2c(CCc3ccccc3)nnc21`, the TGI in [1], in [2], in [3], in [4], in assay [5] and in assay [6] was above 100 µM each time. The TGI in assay [7], in assay [8] and in assay [9] was above 100 µM in each case.
Usually GI50 stands for the concentration at which growth is held to half of that of the control. For the compound `CCCCN(CC)c1ncnc2ccc(Br)cc12`, the GI50 in assay [1] is 18.9 µM; in [2], 15.8 µM; in [3], 14.5 µM; in [4], 16.9 µM; in [5], 8.45 µM; in assay [6], 20.5 µM. For the same compound, the GI50 in assay [7] is 16.7 µM; in [8], 21 µM; in assay [9] it was 28.9 µM. In addition, the TGI in [1] is 39.7 µM; in [2] it was 32.5 µM; in assay [3] it was 40.3 µM; in assay [4], 34 µM; in assay [5] it was 24.7 µM; in assay [6] it was 44.2 µM. For the same compound, the TGI in [7], in [8] and in assay [9] was above 100 µM in each case.
As for `COc1nc(C)cc2c(=O)n(-c3ccccc3)n(CC(O)CN3CCN(c4ccc(Cl)cc4)CC3)c(=O)c12` (stereo not drawn), the GI50 is 25.8 µM in assay [1]; 34.3 µM in assay [2]; 43.3 µM in [3]; 37.9 µM in [4]; above 50 µM in assay [6]; above 50 µM in assay [7]. Moreover, the figures for the GI50 in [8], in [9] and in assay [10] were 25.8 µM, above 50 µM and 10.1 µM, respectively. For the same compound, the concentration for total growth inhibition (TGI) in assay [1], in assay [2], in assay [3], in assay [4], in assay [6] and in [7] was above 50 µM each time. Also, the total growth inhibition concentration (TGI) is above 50 µM in assay [8], above 50 µM in assay [9] and 27.8 µM in assay [10].
In the case of `Cc1cc(=O)oc2cc(OC(=O)N(CCCl)CCCl)ccc12`, the TGI in assay [1], in [2], in assay [3], in assay [4], in [5] and in assay [6] was above 100 µM in each case. The TGI in assay [7], in [8], in assay [9] and in [10] was above 100 µM in each case.
For `CCN(CC)CCOc1c(OC)c(Br)cc2c(C)c(C(=O)OC)oc12`, the GI50 in assay [1] was 1.71 µM; in assay [2] it was 0.982 µM; in assay [3], 0.899 µM; in assay [5], 4.17 µM; in assay [6] it was 2.42 µM; in [7], 1.4 µM. The results for the GI50 in assay [8] and in [9] were 1.32 µM and 0.188 µM, respectively. Besides, the TGI in assay [1] stood at 6.04 µM; in assay [2] it was 2.28 µM; in [3], 2.08 µM; in assay [5] it was 13 µM; in [6] it was 7.41 µM; in [7], 7.05 µM. In addition, the TGI in [8] was found to be 11.9 µM; in assay [9], 0.488 µM.
With `COc1cc2ncnc3c2cc1OCCCCCN(C)Cc1ccc(Br)cc1N3`, the GI50 in assay [1] is 37.4 µM and 5.07 µM; in assay [2] it was 2.48 µM and 1.76 µM; in [3], 0.0871 µM and 0.262 µM; in assay [4], 21.7 µM and 8.36 µM; in assay [5], 4.03 µM and 1.84 µM; in assay [6], 17.7 µM and > 10 µM. The GI50 was 0.35 µM and 0.31 µM in assay [7]; 0.851 µM and 0.225 µM in [8]; 0.643 µM and 0.446 µM in [9]; 6.14 µM and 2.91 µM in assay [10]. Moreover, the TGI in assay [1] is above 100 µM; in [2] it was above 100 µM; in [3], 37.5 µM and > 10 µM; in assay [4], above 100 µM; in assay [5], above 100 µM; in assay [6], above 100 µM. In addition, the TGI is 10.6 µM and 4.31 µM in [7]; 85.4 µM and 9.5 µM in [9]; 64 µM and > 10 µM in [10].
With `CC1(C)C=[N+]([O-])C(C)(C)N1O`, the TGI in [1], in assay [2], in assay [3], in assay [4], in [5] and in [6] was above 10 µM each time. Moreover, the total growth inhibition concentration (TGI) in assay [8] and in assay [9] was above 10 µM in each case.
Consider `Oc1c(CN2CCCC2)cc(CSCc2ccccc2)c2cccnc12`, for which the GI50 in [1] is 0.728 µM; in assay [2], 0.44 µM; in assay [3], 0.291 µM; in [4] it was 0.513 µM; in assay [5] it was 0.772 µM; in assay [6], 1.39 µM. Besides, the GI50 in [7] is 1.93 µM; in assay [8] it was 1.14 µM; in assay [9], 1.15 µM; in assay [10], 1.5 µM. Moreover, the total growth inhibition concentration (TGI) was determined as 6.09 µM in [1]; 2.7 µM in assay [2]; 10.2 µM in [3]; 7.78 µM in assay [4]; 3.74 µM in assay [5]; 11.9 µM in assay [6]. Also, the TGI stood at 11.3 µM in assay [7], 3.77 µM in assay [8], 8.26 µM in assay [9] and 15.9 µM in assay [10].
`CC[C@@]12C=CCN3CC[C@]4(c5cc(NC(=O)COc6cc(OCC(=O)Nc7cc8c(cc7OC)N(C)[C@H]7[C@@](O)(C(=O)OC)[C@H](OC(C)=O)[C@]9(CC)C=CCN%10CC[C@]87[C@@H]%109)cc7oc(-c8ccccc8)cc(=O)c67)c(OC)cc5N(C)[C@@H]4[C@](O)(C(=O)OC)[C@H]1OC(C)=O)[C@H]32`: the GI50 is 3.58 µM in [1]; 2.58 µM in assay [2]; above 100 µM in [3]; 3.08 µM in assay [4]; 1.58 µM in [5]; 1.89 µM in [6]. The GI50 in assay [7] is 1.32 µM; in assay [8] it was 2.15 µM; in assay [9], 57.5 µM; in assay [10], 3.41 µM. Besides, the TGI in assay [1] was 14.9 µM; in assay [2], 9.72 µM; in assay [3] it was above 100 µM; in [4], above 100 µM; in assay [5], 3.28 µM; in assay [6], 3.99 µM. Moreover, the TGI was 3.63 µM in assay [7], 6.03 µM in assay [8], above 100 µM in assay [9] and above 100 µM in assay [10].
